{"source": "patent US8847018B2", "about": "“Plants tolerant to HPPD inhibitor herbicides” (Bayer CropScience AG, priority 2009, dated 2014)", "key": {"[1]": {"tested_on": "tobacco calli containing HPPD SEQ ID No. 11 (Arabidopsis thaliana)", "test": "Rooting of calli on media with tembotrione", "assay_type": "cell-based, Nicotiana tabacum", "conditions": "calli containing SEQ ID No. 11; 6 to 12 weeks", "protocol": "(§1) The leaf disks were co-cultivated for 2 days with Agrobacterium tumefaciens cells containing either the binary vector FMP22ebv, FMP23ebv or AtHPPDbv. Then the leaf disks were transferred to a media allowing the regeneration of shoots for 6 weeks on MS (Musharige and Skoog, (1962), Physiol Plant 15(3): 473-497) media supplemented with BAP ([…]; Benzylaminopurine), carbenicillin ([…]), cefotaxine (250 mg/mL), kanamycin (75 mg/mL) and tembotrione (10^−6 M)\n(§2) Regenerated calli were transferred on media to induce the development of roots for 6 to 12 weeks: MS (½), supplemented with carbenicillin (250 mg/mL), cefotaxine (250 mg/mL), kanamycin (75 mg/mL), and tembotrione (10^−6 M).\n(§3) Regenerated shoot calli from a cell transformed with a nucleic acid sequence encoding an HPPD comprising SEQ ID No. 11 (Arabidopsis thaliana) SEQ ID No. 21 or SEQ ID No. 7 (Rhodococcus) were transferred to a media inducing root growth which media was further supplemented with the HPPD inhibitor tembotrione for 6 to 12 weeks."}, "[2]": {"tested_on": "tobacco calli containing HPPD SEQ ID No. 7 (Rhodococcus)", "test": "Rooting of calli on media with tembotrione", "assay_type": "cell-based, Nicotiana tabacum", "conditions": "calli containing SEQ ID No. 7; 6 to 12 weeks", "protocol": "as §1, §2, §3"}, "[3]": {"tested_on": "tobacco calli containing HPPD SEQ ID No. 21 (Rhodococcus)", "test": "Rooting of calli on media with tembotrione", "assay_type": "cell-based, Nicotiana tabacum", "conditions": "calli containing SEQ ID No. 21; 6 to 12 weeks", "protocol": "as §1, §2, §3"}, "[4]": {"tested_on": "soybean plants expressing the FMP23 HPPD protein", "test": "Greenhouse treatment of soybean events with tembotrione", "assay_type": "in vivo", "conditions": "six FMP23 events; 100 g AI/ha, ten days after application", "protocol": "(§4) Plants containing the transgene were then sprayed with HPPD inhibitor herbicides, as for example with tembotrione at a rate of 100 g Al/ha. Ten days after the application the symptoms due to the application of the herbicide were evaluated and compared to the symptoms observed on a wild type plants under the same conditions.\n(§5) Concerning FMP22, one event expressing the FMP22 HPPD protein have been generated from the green shoots of above and were transferred to the greenhouse. Four weeks after acclimation, i.e. plants at a developmental stage of 3-4 internodes were treated with 100 g Al/ha tembotrione prepared from a WP 20 formulation supplemented with ammonium sulfate and methyl ester raps oil. Ten days after application, the symptoms caused by the application of the HPPD inhibitor herbicide were evaluated and compared to the symptoms observed on treated non-transgenic wild-type soybean plants. […] Concerning FMP23, six events expressing the FMP23 HPPD protein have been generated from the green shoots of above and were transferred to the greenhouse. […] Ten days after application, the symptoms caused by the application of the HPPD inhibitor herbicide were evaluated and compared to the symptoms observed on treated non-transgenic wild-type soybean plants."}, "[5]": {"tested_on": "soybean plants expressing the FMP22 HPPD protein", "test": "Greenhouse treatment of soybean events with tembotrione", "assay_type": "in vivo", "conditions": "one FMP22 event; 100 g AI/ha, ten days after application", "protocol": "as §4, §5"}, "[6]": {"tested_on": "Rhodococcus HPPD SEQ ID No. 19 (FMP23e)", "test": "biochemical", "assay_type": "biochemical, Rhodococcus sp. (strain RHA1), isolate ro02040", "conditions": "SEQ ID No. 19"}, "[7]": {"tested_on": "Rhodococcus HPPD SEQ ID No. 5 (FMP22e)", "test": "biochemical", "assay_type": "biochemical, Rhodococcus sp. (strain RHA1), isolate ro03041", "conditions": "SEQ ID No. 5"}, "[8]": {"tested_on": "rice plants containing FMP23e", "test": "Response to tembotrione in glasshouse trials, T0 rice", "assay_type": "in vivo", "conditions": "100 g AI/ha, 7 DAT", "protocol": "(§6) T0 rooted plantlets (either selected on phosphinothricin alone or on phosphinothricin supplemented with tembotrione) were transferred to soil in the glasshouse. Following an acclimation period, sufficiently grown plants were treated with the different HPPD inhibitor herbicides. As an example, T0 plants were sprayed with tembotrione of formulation type WP20 100 g Al/ha supplemented with ammonium sulfate and methyl ester raps oil. Seven days after the spray application, the symptoms due to the application of the herbicide were evaluated and compared the symptoms observed on wild type plants submitted to the same treatment.\n(§7) The plants were classified in three categories based on the phenotype developed in response to the herbicide seven days after the treatment."}, "[9]": {"tested_on": "rice plants containing FMP22e", "test": "Response to tembotrione in glasshouse trials, T0 rice", "assay_type": "in vivo", "conditions": "100 g AI/ha, 7 DAT", "protocol": "as §6, §7"}}, "note": "Entries after “also recorded” stand apart in the source; their conditions may differ."}
{"smiles": "CS(=O)(=O)c1ccc(C(=O)C2C(=O)CCCC2=O)c(Cl)c1COCC(F)(F)F", "note": "[Tembotrione, 2-[2-chloro-4-(methylsulfonyl)-3-[(2,2,2,-tri-fluoroethoxy)methyl]benzoyl]-1,3-cyclo-hexanedione]", "values": [{"measurement": "root growth on media with tembotrione", "setting": "[1]", "result": "On none of the events containing the HPPD defined by SEQ ID No. 11 (Arabidopsis thaliana) or none transformed calli, root growth was observed"}, {"measurement": "% Elongation & rooting on 10^−6 M tembotrione", "setting": "[2]", "result": 65, "unit": "%"}, {"measurement": "root growth on media with tembotrione", "setting": "[2]", "result": "clearly developed numerous and healthy roots"}, {"measurement": "% Elongation & rooting on 10^−6 M tembotrione", "setting": "[3]", "result": 63, "unit": "%"}, {"measurement": "root growth on media with tembotrione", "setting": "[3]", "result": "clearly developed numerous and healthy roots"}, {"measurement": "symptoms caused by the herbicide", "setting": "[4]", "result": "One of the six events didn't show any bleaching phenotype; also recorded: One event showed transitory light bleaching symptoms but recovered 14 days after tembotrione application; also recorded: remaining four events exhibited the bleaching like non-transgenic wild-type soybean plant"}, {"measurement": "symptoms caused by the herbicide", "setting": "[5]", "result": "transitory light bleaching symptoms but recovered 14 days after tembotrione application"}, {"measurement": "pI50", "setting": "[6]; 2 mM HPP, 3 minutes incubation", "result": 5.1}, {"measurement": "percentage of inhibition compared to activity in absence of the inhibitor", "setting": "[6]; 5.0 × 10^−6 M inhibitor", "result": 70, "unit": "%"}, {"measurement": "pI50", "setting": "[7]; 2 mM HPP, 3 minutes incubation", "result": 5.3}, {"measurement": "percentage of inhibition compared to activity in absence of the inhibitor", "setting": "[7]; 5.0 × 10^−6 M inhibitor", "result": 36, "unit": "%"}, {"measurement": "Class II (number of plants, temporary light injuries, injury: 10-40%)", "setting": "[8]", "result": 10}, {"measurement": "Class III (number of plants, strong injuries, injury: 41-100%)", "setting": "[8]", "result": 7}, {"measurement": "Class II (number of plants, temporary light injuries, injury: 10-40%)", "setting": "[9]", "result": 19}]}
